What was measured:
H3 receptor = target: T1, H3 receptor (Cavia porcellus, UniProt Q9JI35); test: H3 receptor binding assay ([3H]R-α-methylhistamine, guinea pig brain membranes)
T1 construct: The source of the H3 receptors in this experiment was guinea pig brain; from tissue; host or cells: guinea pig brain membranes
Protocol: The source of the H3 receptors in this experiment was guinea pig brain. The animals used weighed 400-600 g. The tissue was homogenized using a Polytron in a solution of 50 mM Tris, pH 7.5. The final concentration of tissue in the homogenization buffer was 10% w/v. The homogenates were centrifuged at 1000× g for 10 minutes in order to remove clumps of tissue and debris. The resulting supermatants were then centrifuged at 50,000× g for 20 minutes in order to sediment the membranes, which were next washed 3 times in homogenization buffer (50,000× g for 20 minutes each). The membranes were frozen and stored at -70° C. until needed.
The compound to be tested was dissolved in DMSO (dimethyl sulfoxide) and then diluted into the binding buffer (50 mM Tris, pH 7.5) such that the final concentration was 2 μg/mL with 0.1% DMSO. Membranes were then added (400 μg of protein) to the reaction tubes. The reaction was started by the addition of 3 nM [^3 H]R-α-methylhistamine (8.8 Ci/mmol) and incubated at 30° C. for 30 minutes. Bound ligand was separated from unbound ligand by filtration, and the amount of radioactive ligand bound to the membranes was quantitated by liquid scintillation spectrometry. The incubation was performed in duplicate and the standard error was less than 10%.

guinea pig ileum = test: Guinea pig ileum assay (inhibition of Rα-methylhistamine effect on electrical field stimulated contractions)
Protocol: Male guinea pigs (450-500 g) were sacrificed by cervical dislocation. Portions of the ileum (20-40 cm) were removed and placed in Tyrodes solution (NaCl, 8.0; KCl, 0.2; MgCl2.6H2 O, 0.2; CaCl2, 0.13; NaH2 PO4, 0.06; dextrose, 1.0; NaHCO3, 1.0 g/l). The ilea were cut into 2.5 cm segments, mounted between platinum wire coaxial electrodes and placed in water-jacketed organ baths containing 25 ml of the Tyrodes solution. Bath fluid temperature was maintained at 37° C. and aerated with 95% 02-5% CO2. The muscles were suspended from isometric force transducers (Grass FT03C) under 0.3 g resting tension. Contractions were amplified on a Buxco tension monitor and recorded on a Harvard polygraph. […] Once this 80% response was determined it was evoked every 60 seconds throughout the experiment. […]
Rα-methylhistamine inhibits the electrical field stimulated contractions of the guinea pig ileum and was used as the H3 agonist reference standard. H3 agonists were studied for their ability to inhibit the electrical field stimulated contractions and their activity was expressed as a percentage of the maximum Rα-methylhistamine effect. […]
Relative potency for agonists was determined from the pD2 (Furchgott, R. F., The pharmacology of Vascular Smooth Muscle. Pharm. Rev. 7, 183, 1955.) calculations. Relative potency for antagonists was determined from pA2 calculations. […]

T1 sequence (Q9JI35 whole entry): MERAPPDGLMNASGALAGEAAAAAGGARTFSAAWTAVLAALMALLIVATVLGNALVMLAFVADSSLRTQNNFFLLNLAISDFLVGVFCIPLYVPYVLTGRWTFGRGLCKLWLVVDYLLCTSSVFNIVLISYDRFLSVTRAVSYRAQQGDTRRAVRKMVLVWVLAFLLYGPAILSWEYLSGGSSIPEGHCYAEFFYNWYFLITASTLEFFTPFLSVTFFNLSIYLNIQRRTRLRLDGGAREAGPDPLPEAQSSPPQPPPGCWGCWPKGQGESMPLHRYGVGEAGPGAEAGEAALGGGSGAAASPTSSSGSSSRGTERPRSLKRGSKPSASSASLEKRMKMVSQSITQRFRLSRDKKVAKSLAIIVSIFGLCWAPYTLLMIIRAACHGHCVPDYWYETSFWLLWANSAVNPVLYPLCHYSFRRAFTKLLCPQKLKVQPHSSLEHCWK

COc1ccc(CC(=NO)C(=O)NCCc2c[nH]cn2)cc1Br [verongamine]
IC50 (H3 receptor; guinea pig brain membranes, 3 nM [3H]R-α-methylhistamine, 30° C., 30 minutes, pH 7.5): 498 nM
activity in an H3 receptor assay (H3 receptor; no concentration stated): active
Guinea Pig Ileum (guinea pig ileum; @ 1 μg/mL, 1 μM chlorpheniramine present, 37° C.): antagonist
activity on guinea pig ileum (guinea pig ileum; no concentration stated): H3 antagonist

Reference: patent US5217986A, “Anti-allergy agent” (Harbor Branch Oceanographic Institution, Inc., priority 1992, dated 1993)
